Reference: US20240336587A1, “CANNABICHROMENE DERIVATIVES AND METHODS FOR MAKING AND USING THE SAME” (University of Mississippi, priority 2021, published 2024)
“Also recorded” adds a separate entry of the source.

Legend:
[1] = after parenteral administration; cited from earlier work
[2] = tested on: inflammatory nociception (acetic acid-induced abdominal writhes) in C57BL/6 mice; assay: Abdominal writhing test (acetic acid-induced writhes); assay type: in vivo; conditions: mouse; for efficacy in abdominal writhing (racemate, diastereoisomers, CBC vs vehicle): one-way ANOVA post-hoc Bonferroni, FIG. 4A
Protocol: (§1) CBC and CBC-val-HS were dissolved in a solution of 10% ethanol/10% cremophore and 80% saline. Mice received IP injection of test compounds in a volume of 1.0 ml/kg for the abdominal writhing assay and 1.0 ml/kg, IP in the hot plate assay. For pharmacokinetic studies, drug was given in a volume of 1.0 ml/kg for tail vein and oral gavage administration. CBC-val-HS doses were calculated to be the dose equivalent of CBC.
(§2) All experimental procedures were approved by the University of Mississippi Institutional Animal Care and Use Committee (Protocol #19-009). Animal studies reported in compliance with the ARRIVE guidelines. Male wild-type C57BL/6 mice (7-10 weeks, 17-30 grams) were used for all behavioral studies and Male CD-1 (6-7 weeks, 20-25 grams) were used for all pharmacokinetic studies. Mice were purchased from Envigo, (Indianapolis, IN, USA) and acclimated for one week prior to experimentation. Mice were group-housed (n=4-5) in a polycarbonate tub with soft bedding in a temperature (22°±2) and humidity-controlled vivarium under a normal 12:12 h light/dark cycle (lights on at 06:00) with food and water ad libitum. Behavioral testing was performed during the hours of 08:00-18:00 with 30-minute acclimation to the testing room for all studies. Mice were assigned treatments through random block assignment per cage and experimenters were blinded to treatment conditions. Equipment was thoroughly sanitized with 70% ethanol between mice.
Abdominal writhing testing was used to quantify inflammatory nociception. Testing was conducted in clear, open-top, acrylic observation chambers (12.7×15.24 cm) located on a smooth surface. Test compounds were administered IP 30 minutes prior to behavioral testing. For testing, mice were then given an IP injection of 0.7% acetic acid in a volume of 10.0 ml/1 kg and immediately placed in an observation chamber for 30-minute test. The number of abdominal writhes served as the dependent measure.

[3] = tested on: thermal nociception in C57BL/6 mice; assay: Hot plate test (thermal nociception, 52° C.); assay type: in vivo; conditions: mouse, IP 30 minutes prior; FIG. 4B
Protocol: as §1
as §2, with “Mice were assigned treatments through random block assignment per cage and experimenters were blinded to treatment conditions. Equipment was thoroughly sanitized with 70% ethanol between mice.” left out
The hot plate (Harvard Instruments, Model #52-8570) was used to quantify thermal nociception. […]

[4] = Pharmacokinetic study, plasma levels by LC-MS-MS; assay type: in vivo, mouse
Protocol: as §1, §2
A pharmacokinetic study of CBC and CBC-val-HS was conducted using either intraperitoneal (IP), oral gavage, or and intravenous (IV; lateral tail vein) administration routes. For each route, four to five subjects were sacrificed at 0, 0.05, 0.25, 0.5, 1, 2, 4, 8, and 24 hr after drug administration. Mice were anesthetized with isoflurane, and whole blood was collected by cardiac puncture. Plasma was isolated by centrifugation (2000 rpm, 5 min) and stored at −80° C. until assayed.
For CBC in the plasma samples were extracted using solid phase cartridges. CBC-VHS plasma samples were diluted with cold acetonitrile, sonicated, centrifuged, transferred supernatant to another extraction tube, evaporated the solvent and reconstituted with acetonitrile for the analysis. The LC-MS-MS system consists of a Shimadzu Prominence UHPLC with a dual pump, a vacuum solvent micro-degasser, a controlled-temperature auto-sampler, and an MS-MS detector (Applied Biosystems/MSD Sciex QTRAP 4500/3200 with a turbo-ion ESI source operating the positive-ion multiple reaction monitoring, or MRM, mode). […] Deuterated internal standard D3-CBC was used for the quantitation of CBC and CBCVHS. The peak area corresponding to each extracted MRM was measured and correlated to a multiple point calibration curve to determine the plasma concentration of each analyte. […]

[5] = tested on: paw edema; conditions: restricted to high doses of over 100 mg/kg; cited from earlier work
[6] = tested on: intestinal inflammation; conditions: far lower doses; cited from earlier work
[7] = tested on: nociception; conditions: effect was time-dependent; cited from earlier work

For `C=C(C)C1CCC(C)=CC1c1c(OC(=O)[C@@H](NC(=O)CCC(=O)O)C(C)C)cc(CCCCC)cc1OC(=O)[C@@H](NC(=O)CCC(=O)O)C(C)C` (some centres unmarked) [CBD-Val-HS], the “presence of the Val-HS derivative in plasma (comparator cannabinoid derivatives)” value [1] is listed as “the only entity found in the plasma”.
For `CCCCCc1cc(OC(=O)C(NC(=O)CCC(=O)O)C(C)C)c2c(c1)OC(C)(C)C1CCC(C)=CC21` (centres unmarked) [THC-Val-HS], the “presence of the Val-HS derivative in plasma (comparator cannabinoid derivatives)” value [1] is given as “not found in plasma”.
In the case of `CCCCCc1cc(OC(=O)C(NC(=O)CCC(=O)O)C(C)C)c2c(c1)OC(C)(CCC=C(C)C)C=C2` (racemic) [CBC-Val-HS, cannabichromene-valinate-hemisuccinate], the “number of acid-induced abdominal writhes” value ([2]; increasing doses, IP 30 minutes prior to acetic acid injection, FIG. 2) is reported as “significantly decreased”, the “overall efficacy or potency in comparison to CBC, abdominal writhing” value ([2]; IP, two-way ANOVA, drug factor F=1.62, p=0.38) is reported as “No differences in overall efficacy or potency; also recorded: equally efficacious” and the “efficacy in abdominal writhing (racemate, diastereoisomers, CBC vs vehicle)” value [2] is reported as “as effective as CBC”. The “latency to hotplate withdrawal (anti-nociception against thermal pain)” value [3] was “displayed anti-nociceptive potential”, the “peak concentration relative to peak concentration of CBC at the same dose equivalent” value ([4]; intravenous administration, in the hour following administration, FIG. 3A) was “greater than 10 × higher” and the “chemical entity detected in circulating plasma” value ([4]; parenteral or oral administration to animals) was “the major chemical component detected in the circulating plasma is the intact CBC-Val-HS; also recorded: a majority of CBC-Val-HS remained intact in circulation”. The “fraction observed in the plasma as intact CBC-Val-HS” value ([4]; plasma after administration) was “two-thirds” and the “fraction of the derivative observed in the plasma as free CBC” value ([4]; plasma after administration) was “about one-third”.
In the case of `CCCCCc1cc(O)c2c(c1)OC(C)(CCC=C(C)C)C=C2` (centres unmarked) [CBC, Cannabichromene], the “efficacy in abdominal writhing (racemate, diastereoisomers, CBC vs vehicle)” value [2] is given as “effective”, the “anti-inflammatory / anti-edematous properties in vivo” value [5] is given as “mild anti-inflammatory, or anti-edematous properties” and the “activity against intestinal inflammation in vivo” value [6] is given as “protective activity”. For the same compound, the “anti-nociceptive effect in tail-flick” value [7] was “biphasic anti-nociceptive effects”.
